Laboratory results as given in ChEMBL document CHEMBL4483862, “Open-source discovery of chemical leads for next-generation chemoprotective antimalarials” (2018).

System: Plasmodium berghei
Assay: Luciferase/luciferin-expressing antifolate-resistant parasites were used to infect a culture of HepG2 cells that were pre-incubated with compounds. Infected hepatocytes emit light due to the luciferase reaction. Assay results are presented as the percent inhibition of light emission compared to control. […]
Assay type: functional
Settings: sporozoite; for IC90: read-out: LUCIFERASE INFECTION ASSAY - IC90
[1] = read-out: LUCIFERASE INFECTION ASSAY - IC50

Row | SMILES | IC90 [µM] | IC50 [1] [µM] | other results
1 | N=C(NOC(=O)Nc1cccc(C(F)(F)F)c1)c1ccc(Oc2c(Cl)cncc2Cl)cc1 | > 6.8 | – | IC50 (HEPG2TOX_HILL_SLOPE 7.08, HEPG2TOX_R_SQUARED 0.63, PBLUC_HILL_SLOPE 1.44, PBLUC_R_SQUARED 0.448, read-out: LUCIFERASE INFECTION ASSAY - IC50): 4.93 µM
2 | COc1ccc(Cl)cc1NS(=O)(=O)c1cccc(C(=O)OC(C)C(=O)c2cc(C)n(-c3ccccc3)c2C)c1 (centres undefined) | > 10 | > 10 | –
3 | O=c1c2c3c(sc2nc(SCc2cc([N+](=O)[O-])cc4c2OCOC4)n1C1CCCC1)CCCC3 | > 10 | – | IC50 (FFLUC_HILL_SLOPE 0.343, FFLUC_R_SQUARED 0.0189, read-out: LUCIFERASE INFECTION ASSAY - IC50): > 10 µM
4 | COc1cc(NC(=O)Nc2nc(C(N)Cc3ccc(C(F)(F)F)cc3)cs2)cc(OC)c1OC (centres undefined) | > 6.65 | – | IC50 (PBLUC_HILL_SLOPE 15.7, PBLUC_R_SQUARED 0.39, read-out: LUCIFERASE INFECTION ASSAY - IC50): 6.04 µM
5 | COc1ccc(C2Sc3ccccc3N=C3C2=C(O)c2ccccc23)cc1 (centres undefined) | 1.84 | – | IC50 (PBLUC_HILL_SLOPE 1.48, PBLUC_R_SQUARED 0.746, read-out: LUCIFERASE INFECTION ASSAY - IC50): 0.42 µM
6 | COc1ccc(CC2CCC(=NOC(=O)c3ccc(C(C)(C)C)cc3)CC2)cc1 (centres undefined) | > 8.39 | – | IC50 (FFLUC_HILL_SLOPE 16.8, FFLUC_R_SQUARED 0.295, read-out: LUCIFERASE INFECTION ASSAY - IC50): > 8.39 µM
7 | COc1ccc(OC)c2c1CN(c1cnn(-c3nc4ccccc4[nH]3)c(=O)c1Cl)CC2O (centres undefined) | > 10 | > 10 | –
8 | CN(C)c1cccc(-c2cnc3sc(NCc4cccnc4)nn23)c1 | > 9.42 | > 9.42 | –
9 | C#CCNS(=O)(=O)c1ccc(C(=O)Nc2ccccc2O)cc1 | 7.83 | – | IC50 (PBLUC_HILL_SLOPE 1.57, PBLUC_R_SQUARED 0.611, read-out: LUCIFERASE INFECTION ASSAY - IC50): 1.93 µM
10 | C=CCc1ccccc1OCC(O)CN1CCN(c2ccccc2OC)CC1 (centres undefined) | > 7.88 | > 7.88 | –
11 | CCCCOc1ccc(CN2CCN(CC(=O)NC)CC2)cc1OCC | > 10 | > 10 | –
12 | CCOC(=O)c1cc(C#N)c(Sc2nnc(SC)s2)nc1C(F)(F)F | > 8.12 | – | IC50 (HEPG2TOX_HILL_SLOPE 16.4, HEPG2TOX_R_SQUARED 0.12, PBLUC_HILL_SLOPE 2.78, PBLUC_R_SQUARED 0.452, read-out: LUCIFERASE INFECTION ASSAY - IC50): 4.34 µM
13 | CCN(c1ccccc1)S(=O)(=O)c1ccc(Cl)c(NC(=O)Nc2ccc(Cl)cc2C#N)c1 | 7.06 | – | IC50 (PBLUC_HILL_SLOPE 5.41, PBLUC_R_SQUARED 0.801, read-out: LUCIFERASE INFECTION ASSAY - IC50): 4.71 µM
14 | CC(C)OC(=O)Nc1cc(Cl)cc(Cl)c1 | > 13.3 | > 13.3 | –
15 | COc1ccc(Cl)cc1NC(=O)CN(C)C(=O)c1cc(-c2ccccc2)nc2c1cnn2C(C)C | > 10 | > 10 | –
16 | O=[N+]([O-])c1ccc2c(c1)nc(SCc1ccc(Cl)cc1Cl)n2-c1ccccc1 | > 10 | – | IC50 (FFLUC_HILL_SLOPE 1.41, FFLUC_R_SQUARED 0.219, read-out: LUCIFERASE INFECTION ASSAY - IC50): > 10 µM
17 | CC1=C2CCCC2CC/C1=N\NC(N)=O (centres undefined) | > 15.9 | – | IC50 (HEPG2TOX_HILL_SLOPE 20.4, HEPG2TOX_R_SQUARED 0.643, PBLUC_HILL_SLOPE 11.7, PBLUC_R_SQUARED 0.0908, read-out: LUCIFERASE INFECTION ASSAY - IC50): 14.9 µM
18 | CCC(=O)NC1=C(Nc2ccc(SC(F)F)cc2)C(=O)c2ccccc2C1=O | 4.5 | – | IC50 (HEPG2TOX_HILL_SLOPE 7.23, HEPG2TOX_R_SQUARED 0.37, PBLUC_HILL_SLOPE 1.96, PBLUC_R_SQUARED 0.792, read-out: LUCIFERASE INFECTION ASSAY - IC50): 1.47 µM
19 | CC(C(=O)NCC1CCCCC1)N1CCN(c2ccc(F)cc2)CC1 (centres undefined) | > 10 | – | IC50 (FFLUC_HILL_SLOPE 3.15, FFLUC_R_SQUARED 0.597, read-out: LUCIFERASE INFECTION ASSAY - IC50): > 10 µM
20 | CCOC(=O)c1sc(NC(=O)c2cc(-c3ccc(F)cc3)nc3ccccc23)cc1C | 9.91 | – | IC50 (HEPG2TOX_HILL_SLOPE 7.73, HEPG2TOX_R_SQUARED 0.935, PBLUC_HILL_SLOPE 14.3, PBLUC_R_SQUARED 0.729, read-out: LUCIFERASE INFECTION ASSAY - IC50): 8.51 µM
21 | Cc1c(C#N)nn(-c2cccc(Cl)c2)c(=O)c1C#N | > 12.2 | > 12.2 | –
22 | Cc1c(-n2nnnc2SCC(C)C)c(=O)n(-c2ccccc2)n1C | > 10 | > 10 | –
23 | CCCNC(=O)c1c(NC(=O)c2ccc(Cl)cc2Cl)nc2ccccn12 | 2.94 | – | IC50 (FFLUC_HILL_SLOPE 16.3, FFLUC_R_SQUARED 0.135, HEPG2TOX_HILL_SLOPE 2.05, HEPG2TOX_R_SQUARED 0.922, PBLUC_HILL_SLOPE 37.2, PBLUC_R_SQUARED 0.437, read-out: LUCIFERASE INFECTION ASSAY - IC50): 2.77 µM
24 | CC1Cc2cc(S(N)(=O)=O)ccc2N1C(=O)CN1CCCN(c2ccc(C(F)(F)F)cn2)CC1 (centres undefined) | > 10 | – | IC50 (HEPG2TOX_HILL_SLOPE 3.49, HEPG2TOX_R_SQUARED 0.873, read-out: LUCIFERASE INFECTION ASSAY - IC50): > 10 µM

Row | SMILES | IC90 [µM] | IC50 [1] [µM] | other results
25 | COc1ccc(-c2nc(CN(c3ccccc3)S(=O)(=O)c3ccccc3)co2)cc1 | > 10 | – | IC50 (PBLUC_HILL_SLOPE 12.4, PBLUC_R_SQUARED 0.25, read-out: LUCIFERASE INFECTION ASSAY - IC50): > 10 µM
26 | COc1ccc(Sc2ccc(NC(=O)c3ccc(F)cc3)cc2C#N)cc1 | > 8.72 | > 8.72 | –
27 | Cc1cccc(N2CCN(C(=O)c3cc4ccccc4o3)CC2C)c1 (centres undefined) | > 10 | – | IC50 (PBLUC_HILL_SLOPE 1.92, PBLUC_R_SQUARED 0.443, read-out: LUCIFERASE INFECTION ASSAY - IC50): 4.83 µM
28 | O=C(NCc1ccc(C(F)(F)F)cc1)c1cc(C(F)(F)F)cc(C(F)(F)F)c1 | > 7.95 | > 7.95 | –
29 | Cc1ccc(NC(=O)Nc2ccc3nc(-c4ccccc4)nn3c2)cc1 | > 10 | > 10 | –
30 | Cc1nn(-c2ccccc2Cl)c2sc(C(=O)Nc3ccc(-c4nnc5n4CCCCC5)cc3)cc12 | > 10 | > 10 | –
31 | CCCCNC(=S)Nc1cc(C(F)(F)F)ccc1N1CCOCC1 | > 10 | > 10 | –
32 | O=C(COC(=O)c1ccc(-n2ncc(Cl)c(Cl)c2=O)cc1)Nc1ccc(F)cc1 | > 10 | > 10 | –
33 | CNc1nc2cnc(Nc3cccc(C(C)C)c3)cc2n1CC1CC1 | 9.92 | – | IC50 (PBLUC_HILL_SLOPE 4.69, PBLUC_R_SQUARED 0.216, read-out: LUCIFERASE INFECTION ASSAY - IC50): 6.21 µM
34 | COc1ccc(C2CCCN2Cc2cc(=O)oc3cc(C)c(Cl)cc23)c(OC)c1 (centres undefined) | > 10 | – | IC50 (PBLUC_HILL_SLOPE 2.17, PBLUC_R_SQUARED 0.455, read-out: LUCIFERASE INFECTION ASSAY - IC50): 6.43 µM
35 | CC(C)(C)c1ccccc1N1C(=O)C=CC1=O | 6.59 | – | IC50 (HEPG2TOX_HILL_SLOPE 10.3, HEPG2TOX_R_SQUARED 0.72, PBLUC_HILL_SLOPE 8.87, PBLUC_R_SQUARED 0.496, read-out: LUCIFERASE INFECTION ASSAY - IC50): 5.14 µM
36 | CN(C)CCNCc1ccc(OC2CCCC2)cc1 | > 11 | > 11 | –
37 | Clc1ccc(-c2cnc3cnc(-c4cnn(Cc5ccccc5)c4)cn23)cc1 | 3.3 | – | IC50 (FFLUC_HILL_SLOPE 15.7, FFLUC_R_SQUARED 0.271, HEPG2TOX_HILL_SLOPE 2.48, HEPG2TOX_R_SQUARED 0.0283, PBLUC_HILL_SLOPE 11.5, PBLUC_R_SQUARED 0.641, read-out: LUCIFERASE INFECTION ASSAY - IC50): 2.73 µM
38 | CC(C)c1ccc(-c2csc(NC(=O)CCn3cnc([N+](=O)[O-])c3)n2)c(C(C)C)c1 | 8.21 | – | IC50 (FFLUC_HILL_SLOPE 11.6, FFLUC_R_SQUARED 0.59, HEPG2TOX_HILL_SLOPE 11.1, HEPG2TOX_R_SQUARED 0.951, PBLUC_HILL_SLOPE 3.89, PBLUC_R_SQUARED 0.436, read-out: LUCIFERASE INFECTION ASSAY - IC50): 4.67 µM
39 | CCOC(=O)c1ccc2c(c1)nc(-c1ccc(Sc3ccc(C)cc3)c([N+](=O)[O-])c1)n2CC | > 10 | > 10 | –
40 | CC(C)c1cc(C(=O)Nc2nnc3ccccn23)c2cnn(C(C)C)c2n1 | 4.31 | – | IC50 (HEPG2TOX_HILL_SLOPE 0.96, HEPG2TOX_R_SQUARED 0.828, PBLUC_HILL_SLOPE 9.22, PBLUC_R_SQUARED 0.235, read-out: LUCIFERASE INFECTION ASSAY - IC50): 3.4 µM
41 | Cc1cc2c(cc1C)NC(c1c(O)ccc3ccccc13)C1C(=O)CC(C)(C)CC1=N2 (centres undefined) | > 8 | 7.67 | –
42 | CSc1nc(N/C=C2/C(=O)c3ccccc3N(C)S2(=O)=O)nc(N(C)C)n1 | > 8.12 | > 8.12 | –
43 | CCn1c(NC(=O)C2=NOC(c3ccccc3)C2)nc2ccccc21 (centres undefined) | 3.82 | 3.35 | –
44 | Cc1cc(C(=O)Nc2nc3cc(C(F)(F)F)ccc3n2Cc2ccco2)c2c(C)noc2n1 | 3.24 | – | IC50 (HEPG2TOX_HILL_SLOPE 1.6, HEPG2TOX_R_SQUARED 0.983, PBLUC_HILL_SLOPE 3.8, PBLUC_R_SQUARED 0.87, read-out: LUCIFERASE INFECTION ASSAY - IC50): 1.82 µM
45 | CCOc1ccc(Oc2ccc(S(=O)(=O)NC(C)c3ccncc3)cc2)cc1 (centres undefined) | 4.85 | 0.559 | –
46 | O=c1c2ccccc2nc(SCc2coc(-c3cccs3)n2)n1-c1ccc(Cl)cc1 | > 10 | > 10 | –
47 | O=C(Nc1ccc(OC(F)(F)F)cc1)c1ccc(=O)n(Cc2ccc(Cl)cc2)c1 | > 7.81 | – | IC50 (PBLUC_HILL_SLOPE 1.46, PBLUC_R_SQUARED 0.0131, read-out: LUCIFERASE INFECTION ASSAY - IC50): 7.46 µM
